The target in the assay is T1, KRAS G12C 1-169, his-tagged protein, GDP-loaded (Homo sapiens, UniProt P01116, G12C).
T1 construct: KRAS G12C 1-169, his-tagged protein, GDP-loaded
In words: Biochemical assay: covalent binding of compounds to KRAS G12C, analysed by mass spectrometry. The procedure:
Compounds were tested for activity as follows:
Compounds were diluted to 50× final test concentration in DMSO in 96-well storage plates. […] Reactions were mixed carefully and thoroughly by pipetting up/down with a 200 μl multi-channel pipettor. The plate was sealed well with aluminum plate seal, and stored in drawer at room temperature for 30 min, 2 hour or 24 hrs. 51 μl of 2% formic acid (Fisher cat # A117) in DI H2O was then added to each well followed by mixing with a pipette. The plate was then resealed with aluminum seal and stored on dry ice until analyzed as described below.
The above described assays were analyzed by mass spectrometry according to the following procedure:
The MS instrument is set to positive polarity, 2 GHz resolution, and low mass (1700) mode and allowed to equilibrate for 30 minutes. The instrument is then calibrated, switched to acquisition mode and the appropriate method loaded.
After another 30 minute equilibration time, a blank batch (i.e., buffer) is run to ensure equipment is operating properly. The samples are thawed at 37° C. for 10 minutes, briefly centrifuged, and transfer to the bench top. Wells A1 and H12 are spiked with 1 uL 500 uM internal standard peptide, and the plates centrifuged at 2000×g for 5 minutes. The method is then run and masses of each individual well recorded.
The masses (for which integration data is desired) for each well are pasted into the platemap and exported from the analysis. Masses for the internal standards are exported as well. The data at 50 ppm is extracted for the +19 charge state, and identity of well A1 is assigned using the internal standard spike and integrated. Peak data is exported as a TOF list and the above steps are repeated individually, for the +20, 21, 22, 23, 24, and 25 charge states.

[1] abbreviates: binding measured at 24 h (compounds 1-47).
Setting [2] is: binding measured at 2 h (compounds 48-246).
The mark [3] stands for this setting: binding measured at 30 min (compounds 247-375).

T1 sequence (P01116 1-169 isoform P01116-2 G12C): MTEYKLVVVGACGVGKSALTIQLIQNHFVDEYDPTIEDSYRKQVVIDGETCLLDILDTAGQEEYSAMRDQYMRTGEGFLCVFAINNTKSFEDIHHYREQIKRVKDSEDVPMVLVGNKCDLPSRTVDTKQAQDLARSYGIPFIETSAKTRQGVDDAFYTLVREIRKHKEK

`C=CC(=O)N1CCN(c2nccc3cc(Cl)c(-c4ccc(Cl)cc4O)cc23)CC1` [Compound 38, 1-(4-(6-chloro-7-(4-chloro-2-hydroxyphenyl)isoquinolin-1-yl)piperazin-1-yl)prop-2-en-1-one]: the Binding % entry under setting [1] was “++ (++ indicates binding activity greater than 25% and up to 50%)”. With `C=CC(=O)N1CCN(c2nc(N)nc3cc(Cl)c(-c4ccc(Cl)cc4)cc23)CC1` [Compound 39, 1-(4-(2-amino-7-chloro-6-(4-chlorophenyl)quinazolin-4-yl)piperazin-1-yl)prop-2-en-1-one], the Binding % entry under setting [1] is listed as “+ (+ indicates binding activity from 5% to 25%)”. As for `C=CC(=O)N1CCN(c2ncnc3cc(Cl)c(-c4ccc(Br)cc4)cc23)CC1` [Compound 40, 1-(4-(6-(4-bromophenyl)-7-chloroquinazolin-4-yl)piperazin-1-yl)prop-2-en-1-one], the Binding % entry under setting [1] is “+++ (+++ indicates binding activity greater than 50% and up to 75%)”. Take `C=CC(=O)N1CCN(c2nc(C)nc3cc(Cl)c(-c4ccc(Cl)cc4)cc23)CC1` [Compound 50, 1-(4-(7-chloro-6-(4-chlorophenyl)-2-methylquinazolin-4-yl)piperazin-1-yl)prop-2-en-1-one]: the Binding % entry under setting [2] is given as “+ (+ indicates binding activity from 5% to 25%)”. For `C=CC(=O)N1CCN(c2ncnc3cc(N4CCCCC4)c(Cl)cc23)CC1` [Compound 80, 1-(4-(6-chloro-7-(piperidin-1-yl)quinazolin-4-yl)piperazin-1-yl)prop-2-en-1-one], the Binding % result under setting [2] is on record as “+ (+ indicates binding activity from 5% to 25%)”. For `C=CC(=O)N1CCN(c2ncnc3cc(-c4ccc(F)cc4C(F)(F)F)c(Cl)cc23)CC1` [Compound 119, 1-(4-(6-chloro-7-(4-fluoro-2-(trifluoromethyl)phe-nyl)quinazolin-4-yl)piperazin-1-yl)prop-2-en-1-one], under setting [2], the Binding % result was “+++ (+++ indicates binding activity greater than 50% and up to 75%)”.

In the case of `C=CC(=O)N1CCN(c2ncnc3cc(-c4c(O)cccc4F)c(Cl)cc23)CC1` [Compound 138, 1-(4-(6-chloro-7-(2-fluoro-6-hydroxyphenyl)quinazolin-4-yl)piperazin-1-yl)prop-2-en-1-one], the Binding % entry under setting [2] was “++++ (++++ indicates binding activity greater than 75%)”. The same measure, in the same setting: to `C=CC(=O)N1CCC(n2c(=O)cnc3cc(-c4ccc(F)cc4F)c(Cl)cc32)CC1` [Compound 151, 1-(1-acryloylpiperidin-4-yl)-7-chloro-6-(2,4-difluorophenyl)quinoxalin-2(1H)-one] belongs “+ (+ indicates binding activity from 5% to 25%)”; to `C=CC(=O)N1CCN(c2cnnc3cc(-c4ccccc4F)c(Cl)cc23)CC1` [Compound 159, 1-(4-(6-chloro-7-(2-fluorophenyl)cinnolin-4-yl)piperazin-1-yl)prop-2-en-1-one], “+++ (+++ indicates binding activity greater than 50% and up to 75%)”; to `C=CC(=O)N1CCN(c2c(C(N)=O)cnc3cc(-c4ccccc4F)c(Cl)cc23)CC1` [Compound 189, 4-(4-acryloylpiperazin-1-yl)-6-chloro-7-(2-fluorophenyl)quinoline-3-carboxamide], “++ (++ indicates binding activity greater than 25% and up to 50%)”. Consider `C=CC(=O)N1CCN(c2ncnc3cc(-c4cc(O)c(F)cc4F)c(Cl)cc23)CC1` [Compound 206, 1-(4-(6-chloro-7-(2,4-difluoro-5-hydroxyphenyl)quinazolin-4-yl)piperazin-1-yl)prop-2-en-1-one], for which the Binding % entry under setting [2] is “+++ (+++ indicates binding activity greater than 50% and up to 75%)”.

As for `C#Cc1cnc2cc(-c3ccccc3F)c(Cl)cc2c1N1CCN(C(=O)C=C)CC1` [Compound 215, 1-(4-(6-chloro-3-ethynyl-7-(2-fluorophenyl)quinolin-4-yl)piperazin-1-yl)prop-2-en-1-one], the Binding % entry under setting [2] was “++ (++ indicates binding activity greater than 25% and up to 50%)”.

As for `C=CC(=O)N1CCN(c2nc(CN(C)C)nc3c(F)c(-c4c(C)ccc5[nH]ncc45)c(Cl)cc23)CC1` [Compound 254, 1-(4-(6-chloro-2-((dimethylamino)methyl)-8-fluoro-7-(5-methyl-1H-indazol-4-yl)quinazolin-4-yl)piperazin-1-yl)prop-2-en-1-one], the Binding % entry under setting [3] was “+++ (+++ indicates binding activity greater than 50% and up to 75%)”. Consider `C=CC(=O)N1CCN(c2ncnc3c(F)c(-c4cc(O)cc5ccccc45)c(Cl)cc23)CC1CO` (stereo not shown) [Compound 256, 1-(4-(6-chloro-8-fluoro-7-(3-hydroxynaphthalen-1-yl)quinazolin-4-yl)-2-(hydroxymethyl)piperazin-1-yl)prop-2-en-1-one], for which the Binding % entry under setting [3] is “+++ (+++ indicates binding activity greater than 50% and up to 75%)”. `C=CC(=O)N1CCN(c2ncnc3cc(-c4cc(C)cc5[nH]ncc45)c(Cl)cc23)CC1` [Compound 262, 1-(4-(6-chloro-7-(6-methyl-1H-indazol-4-yl)quinazolin-4-yl)piperazin-1-yl)prop-2-en-1-one]: the Binding % entry under setting [3] is on record as “+ (+ indicates binding activity from 5% to 25%)”.

As for `C=CC(=O)N1CCN(c2ncnc3cc(-c4cc(Cl)cc5[nH]ncc45)c(Cl)cc23)CC1` [Compound 266, 1-(4-(6-chloro-7-(6-chloro-1H-indazol-4-yl)quinazolin-4-yl)piperazin-1-yl)prop-2-en-1-one], under setting [3], the Binding % result is “+++ (+++ indicates binding activity greater than 50% and up to 75%)”. As for `C=CC(=O)N1CCN(c2ncnc3c(OC)c(-c4c(C)ccc5[nH]ncc45)c(Cl)cc23)CC1` [Compound 302, 1-(4-(6-chloro-8-methoxy-7-(5-methyl-1H-indazol-4-yl)quinazolin-4-yl)piperazin-1-yl)prop-2-en-1-one], under setting [3], the Binding % result is “+++ (+++ indicates binding activity greater than 50% and up to 75%)”. The same measure, in the same setting: the value for `C=CC(=O)N1CCN(c2cc(=O)[nH]c3cc(-c4c(C)ccc5[nH]ncc45)c(Cl)cc23)CC1` [Compound 326, 4-(4-acryloylpiperazin-1-yl)-6-chloro-7-(5-methyl-1H-indazol-4-yl)quinolin-2(1H)-one] was “+ (+ indicates binding activity from 5% to 25%)”; that for `C/C=C/C(=O)N1CCN(c2ncnc3c(F)c(-c4cc(O)cc5ccccc45)c(Cl)cc23)CC1` [Compound 328, (E)-1-(4-(6-chloro-8-fluoro-7-(3-hydroxynaphthalen-1-yl)quinazolin-4-yl)piperazin-1-yl)but-2-en-1-one] was “+ (+ indicates binding activity from 5% to 25%)”; that for `C=CC(=O)N1CCN(c2ncnc3cc(-c4c(O)cccc4F)c(Cl)c(F)c23)CC1` [Compound 343, 1-(4-(6-chloro-5-fluoro-7-(2-fluoro-6-hydroxyphenyl)quinazolin-4-yl)piperazin-1-yl)prop-2-en-1-one] was “+++ (+++ indicates binding activity greater than 50% and up to 75%)”. Take `C=CC(=O)N1CCN(c2nc(N(C)C)nc3c(F)c(-c4cc(O)cc5ccccc45)c(Cl)cc23)CC1` [Compound 344, 1-(4-(6-chloro-2-(dimethylamino)-8-fluoro-7-(3-hydroxynaphthalen-1-yl)quinazolin-4-yl)piperazin-1-yl)prop-2-en-1-one]: the Binding % result under setting [3] was “+++ (+++ indicates binding activity greater than 50% and up to 75%)”. Still for that read-out and setting: to `C=CC(=O)N1CCN(c2nc(NC)nc3c(F)c(-c4cc(O)cc5ccccc45)c(Cl)cc23)CC1` [Compound 345, 1-(4-(6-chloro-8-fluoro-7-(3-hydroxynaphthalen-1-yl)-2-(methylamino)quinazolin-4-yl)piperazin-1-yl)prop-2-en-1-one] belongs “++++ (++++ indicates binding activity greater than 75%)”.

On to `C=CC(=O)N1CCN(c2ncnc3c(F)c(-c4cc(O)cc5ccccc45)c(Cl)cc23)CC1CN(C)C` (stereo not shown) [Compound 346, 1-(4-(6-chloro-8-fluoro-7-(3-hydroxynaphthalen-1-yl)quinazolin-4-yl)-2-((dimethylamino)meth-yl)piperazin-1-yl)prop-2-en-1-one], for which, under setting [3], the Binding % entry is “++++ (++++ indicates binding activity greater than 75%)”. On to `C=CC(=O)N1CCN(c2nc(NC3CCOC3)nc3c(F)c(-c4c(C)ccc5[nH]ncc45)c(Cl)cc23)CC1` (stereo not shown) [Compound 347, 1-(4-(6-chloro-8-fluoro-7-(5-methyl-1H-indazol-4-yl)-2-(tetrahydrofuran-3-ylamino)quinazolin-4-yl)piperazin-1-yl)prop-2-en-1-one], for which the Binding % result under setting [3] was “++++ (++++ indicates binding activity greater than 75%)”. On to `C=CC(=O)N1CCN(c2ncnc3c(OC)c(-c4cc(O)cc5ccccc45)c(Cl)cc23)CC1` [Compound 348, 1-(4-(6-chloro-7-(3-hydroxynaphthalen-1-yl)-8-methoxyquinazolin-4-yl)piperazin-1-yl)prop-2-en-1-one], for which the Binding % result under setting [3] is “++++ (++++ indicates binding activity greater than 75%)”.

(Values after patent publication US10927125B2, “Substituted cinnolines as inhibitors of KRAS G12C” (Araxes Pharma LLC, priority 2013, dated 2021).)
